Earlier results in PMC10937419, “Exploring pyrrolidinyl-spirooxindole natural products as promising platforms for the synthesis of novel spirooxindoles as EGFR/CDK2 inhibitors for halting breast cancer cells” (Frontiers in Chemistry, 2024).

How the values were obtained:
MCF-7 = system: MCF-7; design: method as in Al-Jassas, et al., 2023; conditions: ref Al-Jassas, et al., 2023; cited from earlier work
CDK-2 = system: CDK-2; design: method as in Al-Jassas, et al., 2023; conditions: ref Al-Jassas, et al., 2023; read-out: CDK-2 inhibition; cited from earlier work
EGFR = system: EGFR; design: method as in Al-Jassas, et al., 2023; conditions: ref Al-Jassas, et al., 2023; read-out: IC50 for EGFR inhibition; cited from earlier work
HepG2 = system: HepG2; design: method as in Al-Jassas, et al., 2023; conditions: ref Al-Jassas, et al., 2023; cited from earlier work
A549 cells = system: A549 cells; design: method as in Barakat, et al., 2023; conditions: ref Barakat, et al., 2023, cited from earlier work

| SMILES | IC50 (MCF-7) [nM] | IC50 (CDK-2) [nM] | IC50 (EGFR) [nM] | IC50 (HepG2) [nM] | selectivity index (SI) (A549 cells; A549 cells versus normal lung fibroblasts Wi-38) | IC50 (A549 cells) [nM] |
| --- | --- | --- | --- | --- | --- | --- |
| O=C(c1ccc(Br)cc1)[C@H]1[C@H](c2cn(-c3ccccc3)nc2-c2ccccc2)C2CC3CCCCC3N2[C@]12C(=O)Nc1ccc(Cl)cc12 (stereo partly drawn) [Compound II] | 189 ± 10 | 35 | 96.6 | 1040 ± 210 |  |  |
| O=C(c1nc2ccccc2[nH]1)[C@H]1[C@H](c2ccc(Cl)cc2Cl)C2CC3CCCCC3N2[C@@]12c1ccccc1-c1nc3ccccc3nc12 (stereo partly drawn) [hit III] |  |  |  |  | 6.64 | 54 |
